According to US5840690A, “Regulation of cell proliferation and differentation using peptides” (priority 1995, dated 1998):
Non-standard residues stand in square brackets, D forms with d. Residues, ends and D or L forms follow the SMILES beside them. Nle = CCCC[C@H](N)C(=O)O

Tests used:
psoriasis = details: provided either orally or topically; cited from earlier work
[1] = test system: cultured human keratinocytes; test: Keratinocyte culture: counts of total cells, basal cells and cornified envelopes; type: cell-based; details: for total number of basal cells: one week of dosing; for proliferation and terminal differentiation of cultured human keratinocytes (conclusion from the results): peptide by itself
Method: Keratinocytes were grown in culture as follows. NIH 3T3 cells were plated at 0.5×10^5 cells per 35-mm tissue-culture dish, and two days later were lethally irradiated with a cobalt-60 source (5000 rads). Keratinocytes were obtained from neonatal foreskin after overnight trypsinization at 4° C. and treatment with 0.02% EDTA. Keratinocytes were plated in 2 ml of serum-free medium per dish on the lethally irradiated 3T3 cells. Each experiment was performed on primary or secondary keratinocyte cultures obtained from different skin samples.
In addition, 1,25-(OH)2 D3 was tested, alone and in combination with PTH (7-34), and PTH (1-34) and PTH (7-34) were tested together.
Beginning at one week in culture, groups of triplicate plates of keratinocytes were incubated with the aforementioned compounds or vehicle alone. After one week of dosing, the medium was removed from each culture and centrifuged, and the pellet was resuspended for the counting of the desquamated floater cells. A hemacytometer was used to count the different cell types under a phase-contrast microscope. The attached cells were then trypsinized for 30-40 min with 0.1 EDTA and 0.1% trypsin and then neutralized with medium. The keratinocytes were pelleted and resuspended in a known volume of medium. Duplicate aliquots were taken for counting the basal (small, rounded) and squamous (larger, irregular-shaped, flattened) cells. The remaining cells were pelleted and treated with 10 mM Tris-HCl (pH 7.4) with 1% beta-mercaptoethanol and 1% sodium dodecyl sulfate (SDS) at room temperature for 10 min. Only cells with cornified envelopes were present after this treatment.
Each culture was thus evaluated for its total cell content, number of basal cells, and cornified envelopes, as described above.

[2] = test system: wounds made through the skin with a 6 mm dermal biopsy punch; test: In vivo skin punch assay; parameters: species or system Sprague-Dawley rats; details: rats, 2.0 μg topically in normal saline, immediately after biopsy and each day for 3 days, FIG. 8
Method: Male Sprague-Dawley rats were anesthetized by intraperitoneal injection of sodium pentobarbital, their dorsal skin shaved, and wounds made through the skin with a 6 mm dermal biopsy punch. Immediately after the biopsy, and each subsequent day for 3 days, groups of rats received topically 2.0 μg of human PTH (1-34) in normal saline or human PTH (7-34) in normal saline; a control group received normal saline without peptide. Four rats from each group were killed by asphyxiation in a chamber of carbon dioxide, and the extent of wound healing was evaluated as follows. Wounds were photographed with the wound surface perpendicular to the axis of the lens. After development of the film, wound images were projected on to paper at a fixed distance, traced with a pencil, and cut out with sharp scissors. The relative sizes of the wounds were assessed by weighing the cut-out paper tracings. Percent healing was calculated from the average decrease in wound area for each group.

[3] = test system: PTH-stimulated biologic responses; details: cited from earlier work
[4] = test system: PTH-mediated elevation of plasma calcium; details: cited from earlier work
[5] = test system: canine adenylate cyclase system; details: cited from earlier work
[6] = test system: hair obtained from human subjects; test: In vitro hair growth assay; type: cell-based
From the text: Candidate peptides may be screened for their ability to stimulate hair growth as follows. […] Hair is sampled from 4 sites of the scalp (frontal, occipital, temporal, and nuchal) and the following body areas: beard, axilla, pubic, chest, forearm, and leg, using the method described by van Scott et al. (J. Invest. Derm. 29: 197, 1957). Immediately after plucking, the hairs are placed in chilled Krebs-Ringer phosphate buffer, pH 7.4. Growing (anagen) and resting (telogen) hairs are differentiated either by gross examination or under low microscopic magnification. Generally, 2 to 4 anagen hairs and 10 to 30 telogen hairs are incubated in duplicate, in 2 ml. centrifuge tubes, in a total volume of 1 ml of incubation mixture consisting of Krebs-Ringer phosphate buffer, pH 7.4, glucose (9 mM), and candidate peptide; control incubation mixture lacks peptide. Samples are incubated with shaking at 37° C. in an air atmosphere. […]
DNA content is determined by the method of Kissane and Robins (J. Biol. Chem. 233: 184, 1958) as modified by Santoianni and Ayala (J. Invest. Derm. 45: 99, 1965). […] Fluorescence is asssayed on an Aminco-Bowman Spectrofluorometer with the excitation wavelength set at 396 nm and the emission wavelength at […]. […] Routinely, standards containing 0.1, 0.4, 0.8, 1.2, 1.6, and 3.2 μg of DNA, and a blank are read with the samples.

[7] = peptide alone at 10^-8 M and 10^-7 M
[8] = PTH (7-34) together with the agonist

For `C=C1/C(=C\C=C2/CCC[C@]3(C)[C@@H]([C@H](C)CC[C@@H](O)C(C)C)CC[C@@H]23)C[C@@H](O)C[C@@H]1O` [1,24-dihydroxyvitamin D3], the “value in the treatment of psoriasis” value (psoriasis) is listed as “of value in the treatment of psoriasis”.

With `CC[C@H](C)[C@H](NC(=O)[C@H](CCC(=O)O)NC(=O)[C@H](CO)NC(=O)[C@@H](NC(=O)[C@@H](N)CO)C(C)C)C(=O)N[C@@H](CCC(N)=O)C(=O)N[C@@H](CC(C)C)C(=O)N[C@@H](CCSC)C(=O)N[C@@H](Cc1c[nH]cn1)C(=O)N[C@@H](CC(N)=O)C(=O)N[C@@H](CC(C)C)C(=O)NCC(=O)N[C@@H](CCCCN)C(=O)N[C@@H](Cc1c[nH]cn1)C(=O)N[C@@H](CC(C)C)C(=O)N[C@@H](CC(N)=O)C(=O)N[C@@H](CO)C(=O)N[C@@H](CCSC)C(=O)N[C@@H](CCC(=O)O)C(=O)N[C@@H](CCCNC(=N)N)C(=O)N[C@H](C(=O)N[C@@H](CCC(=O)O)C(=O)N[C@@H](Cc1c[nH]c2ccccc12)C(=O)N[C@@H](CC(C)C)C(=O)N[C@@H](CCCNC(=N)N)C(=O)N[C@@H](CCCCN)C(=O)N[C@@H](CCCCN)C(=O)N[C@@H](CC(C)C)C(=O)N[C@@H](CCC(N)=O)C(=O)N[C@@H](CC(=O)O)C(=O)N[C@H](C(=O)N[C@@H](Cc1c[nH]cn1)C(=O)N[C@@H](CC(N)=O)C(=O)N[C@@H](Cc1ccccc1)C(=O)O)C(C)C)C(C)C` [PTH (1-34), Parathyroid Hormone (1-34), Human] the “growth of human cultured keratinocytes” value ([1]; 10^-7 and 10^-8 M) was “inhibits growth”, the “terminal differentiation of human cultured keratinocytes” value ([1]; 10^-7 and 10^-8 M) was “induces terminal differentiation” and the “total number of cornified envelopes, percent of control” value (“total number … percent of control” for short) ([1]; compound alone, FIGS. 6 and 7) was “increased, in a dose-dependent manner”. The “total number of basal cells” value [1, 7] was “significantly decreased”, the “proliferation and terminal differentiation of cultured human keratinocytes (conclusion from the results)” value [1] was “biologically effective in inhibiting the proliferation of cultured human keratinocytes and inducing terminal differentiation” and the “wound healing (percent healing from decrease in wound area)” value [2] was “biologically effective in enhancing wound healing”. The “wound healing (percent healing from decrease in wound area)” value ([2]; listed as human PTH (1-34)) was “enhance wound healing”.

With `CCCC[C@H](NC(=O)[C@H](CO)NC(=O)[C@H](CO)NC(=O)[C@H](CC(C)C)NC(=O)[C@H](Cc1c[nH]cn1)NC(=O)[C@H](CCCCN)NC(=O)CNC(=O)[C@H](CC(C)C)NC(=O)[C@H](CC(N)=O)NC(=O)[C@H](Cc1c[nH]cn1)NC(=O)[C@H](CCCC)NC(=O)[C@H](Cc1ccccc1)NC(=O)[C@H](CCC(N)=O)NC(=O)[C@@H](NC(=O)[C@H](CCC(=O)O)NC(=O)[C@@H](N)CO)[C@@H](C)CC)C(=O)N[C@@H](CCC(=O)O)C(=O)N[C@@H](CCCNC(=N)N)C(=O)N[C@H](C(=O)N[C@@H](CCC(=O)O)C(=O)N[C@@H](Cc1c[nH]c2ccccc12)C(=O)N[C@@H](CC(C)C)C(=O)N[C@@H](CCCNC(=N)N)C(=O)N[C@@H](CCCCN)C(=O)N[C@@H](CCCCN)C(=O)N[C@@H](CC(C)C)C(=O)N[C@@H](CCC(N)=O)C(=O)N[C@@H](CC(=O)O)C(=O)N[C@H](C(=O)N[C@@H](Cc1c[nH]cn1)C(=O)N[C@@H](CC(N)=O)C(=O)N[C@@H](Cc1ccc(O)cc1)C(N)=O)C(C)C)C(C)C` [PTH (3-34), [Nle^8, Nle^18, Tyr^34] bovine (3-34) PTH amide] (H-SEIQF[Nle]HNLGKHLSS[Nle]ERVEWLRKKLQDVHNY-NH2) the “total number … percent of control” value ([1]; compound alone, FIGS. 6 and 7) was “increased, in a dose-dependent manner”, the “proliferation of keratinocytes (agonist)” value ([1]; concentration not given) was “inhibits proliferation” and the “terminal differentiation of keratinocytes (agonist)” value ([1]; concentration not given) was “induces terminal differentiation”. The “total number of basal cells” value ([1]; peptide alone at 10^-10 and 10^-8 M) was “significantly decreased”, the “proliferation and terminal differentiation of cultured human keratinocytes (conclusion from the results)” value [1] was “have the same effect as PTH (1-34)” and the “PTH-stimulated biologic responses in vitro” value [3] was “can be inhibited”.

With `CSCC[C@H](NC(=O)[C@H](CO)NC(=O)[C@H](CO)NC(=O)[C@H](CC(C)C)NC(=O)[C@H](Cc1c[nH]cn1)NC(=O)[C@H](CCCCN)NC(=O)CNC(=O)[C@H](CC(C)C)NC(=O)[C@H](CC(N)=O)NC(=O)[C@H](Cc1c[nH]cn1)NC(=O)[C@H](CCSC)NC(=O)[C@@H](N)Cc1ccccc1)C(=O)N[C@@H](CCC(=O)O)C(=O)N[C@@H](CCCNC(=N)N)C(=O)N[C@H](C(=O)N[C@@H](CCC(=O)O)C(=O)N[C@@H](Cc1c[nH]c2ccccc12)C(=O)N[C@@H](CC(C)C)C(=O)N[C@@H](CCCNC(=N)N)C(=O)N[C@@H](CCCCN)C(=O)N[C@@H](CCCCN)C(=O)N[C@@H](CC(C)C)C(=O)N[C@@H](CCC(N)=O)C(=O)N[C@@H](CC(=O)O)C(=O)N[C@H](C(=O)N[C@@H](Cc1c[nH]cn1)C(=O)N[C@@H](CC(N)=O)C(=O)N[C@@H](Cc1ccc(O)cc1)C(N)=O)C(C)C)C(C)C` [PTH (7-34), [Tyr^34] bovine PTH (7-34) amide] the “keratinocyte antiproliferative and terminal differentiation-inducing activities of 1,25(OH)2 D3” value ([1]; PTH (7-34) against 1,25(OH)2 D3) was “blocks”, the “antiproliferative and differentiation-inducing activities of PTH (1-34) and CFF (1-34) (antagonist)” value ([1]; PTH (7-34) against PTH (1-34) and CFF (1-34)) was “blocks” and the “response to 1,25(OH)2 D3 (cell numbers)” value ([1]; PTH (7-34) at 10^-7 M co-incubated with 1,25(OH)2 D3 at 10^-8 M) was “significantly decreased the response”. For the same molecule, the “effect of PTH (1-34) and CFF (1-34) on total number of cells and total number of basal cells” value ([1]; PTH (7-34) co-incubated with hPTH (1-34) or CFF (1-34)) was “inhibited the effect”, the “antiproliferative and differentiation-inducing activities of each of 1,25(OH)2 D3, PTH (1-34), and CFF (1-34) (conclusion)” value [1, 8] was “can block” and the “effect of 1,25(OH)2 D3, PTH (1-34), and CFF (1-34) on cornified envelope development” value [1, 8] was “inhibited the effect”. For the same molecule, the “total number … percent of control” value [1, 7] was “no effect”, the “total number of basal cells” value [1, 7] was “no effect” and the “proliferation and terminal differentiation of cultured human keratinocytes (conclusion from the results)” value [1] was “substantially no effect”. The “wound healing (percent healing from decrease in wound area)” value [2] was “biologically effective in enhancing wound healing”, the PTH-like agonist activity ([4]; rat, in vivo) was “devoid of PTH-like agonist activity” and the “PTH-mediated elevation of plasma calcium” value ([4]; thyroparathyroidectomized rats in vivo) was “can inhibit”.

For “Parathyroid Hormone (1-34), Rat [Rat PTH (1-34)]”, the “activity relative to bovine PTH (1-34)” value [5] is given as 2-4 fold and the “activity relative to human PTH (1-34)” value [5] is given as 8-10 fold.

For “human PTH (7-34): human PTH (7-34), applied topically in normal saline in the skin punch assay; stimulates hair growth in vitro (LMHNLGKHLNSMERVEWLRKKLQDVHNF; Parathyroid hormone; UniProt P01270 38-65, looked up, fragment)”, the “wound healing (percent healing from decrease in wound area)” value [2] was “enhance wound healing” and the “hair growth in vitro” value [6] was “stimulates hair growth”.
